Laboratory results published in patent publication US20240115672A1, “TREATMENT OF AN IOP CONDITION” (THE RESEARCH FOUNDATION FOR THE STATE UNIVERSITY OF NEW YORK, priority 2021, published 2024).

Experiments:
[1] = system: Mmp-2, Mmp-9, Mmp-13 mRNA in angle ring tissues; experiment: Mmp expression in Tg-MYOCY437H angle ring tissues (Example 19); assay type: in vivo, mouse
Protocol: Eyes were flash frozen in liquid nitrogen after outflow facility determination and subsequently dissected on ice to obtain the angle ring tissues containing the TM, as previously described (Kumar, Shah et al. 2013). Dissected TM tissues were immersed in RNAlater solution (Invitrogen, Waltham, MA, USA) and then snap-frozen and stored at −80° C. until RNA extraction. Tissue collected was pooled (four eyes) and homogenized in TRIzol reagent for RNA isolation, per manufacturer's instructions (Life Technologies, Carlsbad, CA, USA). RNA concentration was determined with a Nanodrop ND-1000 Spectrophotometer (Thermo Scientific, Wilmington, DE, USA). cDNA was synthesized by using High-Capacity cDNA
Reverse Transcription Kit (Applied Biosystems, Waltham, MA, USA) according to manufacturer's protocol. Quantitative real-time PCR (qRT-PCR) was performed by using Green-2-Go qPCR Mastermix-ROX (Bio Basic, Amherst, NY, USA) on a QuantStudio 6 Flex thermal cycler (Applied Biosystems, Carlsbad, CA, USA). mRNA expression of Plat, Plait, Pai-1, Mmp-2, Mmp-9, and Mmp-13 in angle ring tissues was determined. Primers were designed by using Primer-BLAST (haps://www.ncbi.nlm.nih.gov/tools/primer-blast/index.cgi?LINK_LOC=BlastHome; in the public domain); primer sequences are listed in Table 2. Primer specificity was confirmed by agarose gel electrophoresis and multiple-sized amplification products were absent on inspection of melting curves. Target mRNA expression values were normalized to the expression levels of Rps11 (ribosomal protein S11). The relative fold change was calculated by using the ΔΔCt method (Hu, Wang et al. 2015). Outliers identified via the Thompson Tau test were removed from analysis.

Mmp-9KO mice = experiment: Outflow facility in protein treated Mmp-9KO mouse eyes (Example 16); assay type: in vivo; conditions: Mmp-9KO eyes, intravitreal; p>0.05 ANOVA
Description: Animals: 8- to 12-week-old female mice were used for this study. The animals were housed and bred at the State University of New York (SUNY) Downstate Health Sciences University Division of Comparative Medicine (Brooklyn. NY) under a 12-hour light/12-hour dark cycle and food ad libitum. C57BL/6J mice were obtained from The Jackson Laboratories (Bar Harbor, ME, USA). A PlatKO mouse colony was established from animals (stock No. 002508) obtained from The Jackson Laboratories. These animals are on a C57BL/61 background (www.jax.org/strain/002508). AnMmp-9KO mouse colony was established from animals (stock No. 007084) obtained from The Jackson Laboratories. These animals are on a mixed background but have been bred into the C57BL/6J background for five generations (www.jax.org/strain/007084). […]
Outflow facility determination: Mouse eyes were enucleated immediately after euthanasia. Outflow facility was determined using a constant pressure method, as previously described. […] Flow was constantly measured via a microfluidic flow sensor (0.07-1.5 uL/min, MFS1; Elveflow, Paris, France). […] Any eyes that developed visible leaks during outflow facility determination, or that had pressure-flow correlations with R^2<0.9, were excluded from analysis but were used for RNA quantification.

[2] = system: sheep of the Corriedale breed; experiment: IOP in prednisolone-treated sheep after intravitreal tPA (Example 3, Protocol 1); assay type: in vivo
Protocol: Methods. The inventors used recombinant human tissue plasminogen activator (rtPA) ([…]; Boehringer Ingelheim SA, Buenos Aires, Argentina) in two different protocols.
Protocol 1. 8 sheep of the Corriedale breed were treated with prednisolone acetate three times a day in both eyes, leading to elevated IOP. After one week, the animals received intravitreal injections of human recombinant tPA (100, 200, 500 and 1000 μg, two animals each) dissolved in balanced salt solution (BSS) in one eye. IOP was monitored for 19 more days while the animals continued to receive treatment with prednisolone. Periodic slit lamp examination was also performed.

[3] = system: MMP-2, MMP-9, MMP-13 expression in HTM cells; experiment: MMP expression in HTM cells (Examples 17, 18); assay type: cell-based, human; conditions: PA treated HTM cells; p<0.0001
[4] = system: sheep of the Coriedale breed; experiment: IOP in prednisolone-treated sheep after tPA injection into the anterior chamber (Example 9); assay type: in vivo; conditions: 0.0001 μg into the AC; IOP 23.0 mm Hg at 6:00 and 30:00 hrs after injection
Protocol: Methods. Lyophilized IPA, obtained as Acetilyse® from Boehringer Ingelheim S.A. (Buenos Aires) containing arginine. was used. Five sheep of the Coriedale breed were selected. Initially all eyes received instillation of 1% prednisolone 3 times/day for 10 days to elevate their IOP from 10 mm Hg to about 23 mm Hg. Then, 0.0001 μg was injected into one of the eyes and its effect was followed for up to 55:00 hrs while the instillation of prednisolone continued in both eyes. The same protocol was implemented for the 0.001 and 0.01 μg amounts (after extended washout) in the contra lateral eyes. Arginine, which is associated with 0.01 ug tPA, was injected alone and had no effect.

[5] = system: Mmp-2, Mmp-9, Mmp-13 and Plat mRNA; experiment: Mmp and Plat expression in protein treated C57BL/6J eyes without steroids (Example 15); assay type: in vivo, mouse; conditions: non-steroid treated C57BL/6 eyes; group means versus BSA; p>0.05
[6] = 2 days after intravitreal protein

tPA: recombinant human tissue plasminogen activator (ACTILYSE; Boehringer Ingelheim), enzymatically active
Mmp-2 expression compared to BSA treated eyes [1, 6]: no significant difference
Mmp-9 expression compared to BSA treated eyes [1, 6]: not detected
Mmp-13 expression compared to BSA treated eyes ([1]; 2 days after intravitreal protein, p<0.01): significantly higher
Mmp-9 expression compared to BSA treated eyes ([1]; 5 days treatment): higher
Mmp-13 expression compared to BSA treated eyes ([1]; 5 days treatment): significantly higher
Mmp-2 expression compared to BSA treated eyes ([1]; 5 days treatment, p>0.05): no significant difference
effect on outflow facility (Mmp-9KO mice): did not increase outflow facility
dose dependence of the IOP effect ([2]; 100, 200, 500 and 1000 μg, p>0.05 ANOVA): independent of the dose
ocular findings ([2]; intravitreal tPA, unrelated to the dose injected): Transient injection and corneal clouding was observed in some eyes
mean (±SD) IOP after tPA ([2]; within 24 h of intravitreal tPA, all doses tested (100-1000 μg), prednisolone continued, before 24.1 (±1.6)): 14.1 (±1.1) mmHg
expression (FIG. 17C) compared to PA+BSA treated cells [3]: significant upregulation
effect on IOP [4]: no effect
gene expression changes in Mmp-2, Mmp-9, and Mmp-13 [5]: not significantly different
